Reference: patent US12275684B2, “Methods for making and using endoxifen” (Atossa Therapeutics, Inc., priority 2017, dated 2025)
Several values for one entry are separate records, joined by “and”; a condition that tells them apart may be missing. Equal values may be shown once. Read-outs that look alike come from different tables or passages of the source.

Assay: Placebo controlled, dose escalation pharmacokinetic study of oral (Z)-Endoxifen capsules (serum endoxifen; incl. accumulation ratios and dose linearity)
Assay type: in vivo, human
Conditions: for AUC(0-inf) / AUC(0-t) / Cmax / Tmax / Vd/F / concentration at 72 h / concentration at 120 h / concentration at 0.5 h / concentration at 1 h / concentration at 2 h / concentration at 3 h / concentration at 4 h / concentration at 5 h / concentration at 8 h / concentration at 10 h / concentration at 12 h / concentration at 24 h: female, human, serum, oral; for concentration at 72 h: Day 4 Hr 72; for concentration at 120 h: Day 6 Hr 120; for concentration at 0.5 h: Day 1 hr 0.5; for concentration at 1 h: Day 1 hr 1; for concentration at 2 h: Day 1 hr 2; for concentration at 3 h: Day 1 hr 3; for concentration at 4 h: Day 1 hr 4; for concentration at 5 h: Day 1 hr 5; for concentration at 8 h: Day 1 hr 8; for concentration at 10 h: Day 1 hr 10; for concentration at 12 h: Day 1 hr 12; for concentration at 24 h: Day 1 hr 24
Text: An objective of the study was to assess the safety and tolerability of oral (Z)-Endoxifen when administered […] orally as a capsule to healthy female volunteers. A secondary objective was to assess the pharmacokinetics of multiple doses of oral (Z)-Endoxifen in the subjects.
Generally, healthy female volunteers aged ≥18 years and ≤65 years were enrolled. 24 participants were enrolled in 3 cohorts and will be administered study drug orally. Three dose levels of orally administered (Z)-Endoxifen were investigated in 3 cohorts. In each cohort participants were randomized to receive an oral (Z)-Endoxifen or placebo in a blinded fashion. Enteric-resistant capsules used in the study were designed as delayed release capsules to resist rupture for at least 30 minutes, but typically, for about 2 hours, under gastric conditions and then open fully in intestinal fluid (DRCaps; Capsugel, a Lonza Company, USA). Enteric-resistant (Swedish Orange size Zero (0); Capsugel, USA) DRCaps capsules manually filled with 1, 2 or 4 mg of (Z)-endoxifen neat in compliance with GMP requirements were used. Placebo capsules contained microcrystalline cellulose an inert common capsule and tablet excipient.
Each cohort enrolled 8 participants, with 6 participants receiving (Z)-Endoxifen 1 mg capsules orally at 1 mg (Cohort 1), 2 mg (Cohort 2) or 4 mg (Cohort 3) doses and 2 participants receiving matching placebo capsules. In Cohort 1 (Dose Level=1 mg) two participants (sentinels) were dosed 24 hours prior to the remaining participants. One sentinel was dosed with (Z)-Endoxifen and the other with placebo. The remaining six participants in Cohort 1 were dosed as no safety concerns were identified in the sentinel participants. The non-sentinel participants in Cohort 1 were admitted to the clinical research facility at least one day later than the sentinels. There were no sentinels in Cohorts 2 and 3.
Participant engagement in this study was for a period of 56 days. These included a 28 day screening period, and a 7 day post treatment period for Pharmacokinetic (PK) sampling. There were two confinement periods, one at the beginning and one at the end of the dosing periods. Participants were confined to the clinical facility on Days-1 through to Day 2 and Days 21 and 22. If participants were to experience any clinically significant adverse events during the study, they would have been required to remain in the clinical facility for further observation at the discretion of the Principal Investigator (PI).
Healthy female volunteers were screened within 28 days prior to commencement of dosing. Participants were admitted to the clinical facility on Day-1 for up to 3 days. The first dose of (Z)-Endoxifen or placebo capsules was administered on Day 1. Following completion of all safety assessments and sampling for PK analyses, participants were discharged from the clinical facility on Day 2. The first dose on Day 1 was followed by a 6-day treatment free period (Days 2-7). Each participant returned to the clinical facility for PK blood draws and safety assessments during the treatment free period on study Days 4 and 6. On Day 8 participants commenced daily administration of (Z)-Endoxifen capsules or placebo capsules for 14 consecutive days (Days 8-21). Participants were supplied with study drug capsules and asked to self administer daily. Participants visited the clinical facility on Days 11, 14 and 17, prior to dose administration, for PK blood draws and safety assessments. On the morning of Day 21 each participant returned to the clinical facility prior to dose administration and were confined to the facility until Day 22 to allow for the collection of PK blood draws and safety assessments. The Day 21 dose was the last administration of study drug. Participants were discharged from the clinical facility on Day 22 and returned for PK blood draws and safety assessments on study Days 24, 26, and 28. […]

[1] = 1 mg, read-out: Serum concentration, GeoMean
[2] = 1 mg, read-out: Serum concentration, Max
[3] = 1 mg, read-out: Serum concentration, Mean
[4] = 1 mg, read-out: Serum concentration, Median
[5] = 1 mg, read-out: Serum concentration, Min

CC/C(=C(\c1ccc(O)cc1)c1ccc(OCCNC)cc1)c1ccccc1 [(Z)-Endoxifen, (Z)-4-(1-(4-(2-(methylamino)ethoxy)phenyl)-2-phenylbut-1-enyl) phenol]
AUC(0-inf), individual subjects (Dose: 2 mg oral, Day 1): 1188 ng·h/mL and 755 ng·h/mL and 954 ng·h/mL and 1242 ng·h/mL and 1489 ng·h/mL | AUC(0-inf), individual subjects (Dose: 4 mg oral, Day 1): 1098 ng·h/mL and 1642 ng·h/mL and 736 ng·h/mL and 1883 ng·h/mL and 2116 ng·h/mL and 4624 ng·h/mL | Time to maximum serum endoxifen levels (FIG. 3 and FIG. 4): about 10 hours | dose response of Cmax and AUC24hr (across the three dose levels, once daily oral): dose-proportionality (linear dose response) | Mean Ratio AUC24 hr(Day 21)/AUC0-inf(Day 1) (dose 1 mg (n = 5)): 0.81 (SD 0.20) | Mean Ratio AUC24 hr(Day 21)/AUC24 hr(Day 1) (dose 1 mg (n = 5)): 3.09 (SD 1.49) | Mean Ratio Cmax(Day 21)/Cmax(Day 1) (dose 1 mg (n = 5)): 2.74 (SD 1.29) | Mean Ratio AUC24 hr(Day 21)/AUC0-inf(Day 1) (dose 2 mg (n = 6)): 0.85 (SD 0.20) | Mean Ratio AUC24 hr(Day 21)/AUC24 hr(Day 1) (dose 2 mg (n = 6)): 3.04 (SD 0.79) | Mean Ratio Cmax(Day 21)/Cmax(Day 1) (dose 2 mg (n = 6)): 2.92 (SD 0.88) | Mean Ratio AUC24 hr(Day 21)/AUC0-inf(Day 1) (dose 4 mg (n = 6)): 1.08 (SD 0.38) | Mean Ratio AUC24 hr(Day 21)/AUC24 hr(Day 1) (dose 4 mg (n = 6)): 3.47 (SD 1.08) | Mean Ratio Cmax(Day 21)/Cmax(Day 1) (dose 4 mg (n = 6)): 3.56 (SD 1.01) | AUC(0-inf) (1 mg, Day 1, 1 mg, N = 5, read-out: AUC0-inf, GeoMean): 559 ng·h/mL | AUC(0-inf) (1 mg, Day 1, 1 mg, N = 5, read-out: AUC0-inf, Mean): 567 ng·h/mL | AUC(0-inf) (1 mg, Day 1, 1 mg, N = 5, read-out: AUC0-inf, Median): 534 ng·h/mL | AUC(0-t) (1 mg, Day 1, 1 mg, N = 5, read-out: AUC24hr, GeoMean): 155 ng·h/mL | AUC(0-t) (1 mg, Day 1, 1 mg, N = 5, read-out: AUC24hr, Mean): 158 ng·h/mL | AUC(0-t) (1 mg, Day 1, 1 mg, N = 5, read-out: AUC24hr, Median): 171 ng·h/mL | AUC(0-t) (1 mg, Day 1, 1 mg, N = 5, read-out: AUCTlast, GeoMean): 466 ng·h/mL | AUC(0-t) (1 mg, Day 1, 1 mg, N = 5, read-out: AUCTlast, Mean): 471 ng·h/mL | AUC(0-t) (1 mg, Day 1, 1 mg, N = 5, read-out: AUCTlast, Median): 472 ng·h/mL | Cmax (1 mg, Day 1, 1 mg, N = 5, read-out: Cmax, GeoMean): 9.5 ng/mL | Cmax (1 mg, Day 1, 1 mg, N = 5, read-out: Cmax, Mean): 9.6 ng/mL | Cmax (1 mg, Day 1, 1 mg, N = 5, read-out: Cmax, Median): 10 ng/mL | Tmax (1 mg, Day 1, 1 mg, N = 5, read-out: Tmax, GeoMean): 5.11 h | Tmax (1 mg, Day 1, 1 mg, N = 5, read-out: Tmax, Mean): 5.62 h | Tmax (1 mg, Day 1, 1 mg, N = 5, read-out: Tmax, Median): 6 h | Vd/F (1 mg, Day 1, 1 mg, N = 5, read-out: Vz/F, GeoMean): 118 L | Vd/F (1 mg, Day 1, 1 mg, N = 5, read-out: Vz/F, Mean): 120 L | Vd/F (1 mg, Day 1, 1 mg, N = 5, read-out: Vz/F, Median): 108 L | AUC(0-t) (1 mg, Day 21, 1 mg, N = 5, read-out: AUC24hr, GeoMean): 431 ng·h/mL | AUC(0-t) (1 mg, Day 21, 1 mg, N = 5, read-out: AUC24hr, Mean): 458 ng·h/mL | AUC(0-t) (1 mg, Day 21, 1 mg, N = 5, read-out: AUC24hr, Median): 527 ng·h/mL | Cmax (1 mg, Day 21, 1 mg, N = 5, read-out: Cmax, GeoMean): 23.3 ng/mL | Cmax (1 mg, Day 21, 1 mg, N = 5, read-out: Cmax, Mean): 24.6 ng/mL | Cmax (1 mg, Day 21, 1 mg, N = 5, read-out: Cmax, Median): 29 ng/mL | Tmax (1 mg, Day 21, 1 mg, N = 5, read-out: Tmax, GeoMean): 6.64 h | Tmax (1 mg, Day 21, 1 mg, N = 5, read-out: Tmax, Mean): 6.88 h | Tmax (1 mg, Day 21, 1 mg, N = 5, read-out: Tmax, Median): 8 h | Vd/F (1 mg, Day 21, 1 mg, N = 5, read-out: Vz/F, GeoMean): 173 L | Vd/F (1 mg, Day 21, 1 mg, N = 5, read-out: Vz/F, Mean): 181 L | Vd/F (1 mg, Day 21, 1 mg, N = 5, read-out: Vz/F, Median): 170 L | concentration at 72 h [1]: 7.84 nM | concentration at 72 h [2]: 10.7 nM | concentration at 72 h [3]: 8.03 nM | concentration at 72 h [4]: 8.03 nM | concentration at 72 h [5]: 5.35 nM | concentration at 120 h [1]: 3.53 nM | concentration at 120 h [2]: 5.35 nM | concentration at 120 h [3]: 3.75 nM | concentration at 120 h [4]: 2.68 nM | concentration at 120 h [5]: 2.68 nM | concentration at 0.5 h [1]: 3.18 nM | concentration at 0.5 h [2]: 5.35 nM | concentration at 0.5 h [3]: 2.68 nM | concentration at 0.5 h [4]: 2.68 nM | concentration at 0.5 h [5]: 0 nM | concentration at 1 h [1]: 3.33 nM | concentration at 1 h [2]: 8.03 nM | concentration at 1 h [3]: 3.75 nM | concentration at 1 h [4]: 2.68 nM | concentration at 1 h [5]: 2.68 nM | concentration at 2 h [1]: 17 nM | concentration at 2 h [2]: 18.7 nM | concentration at 2 h [3]: 17.1 nM | concentration at 2 h [4]: 18.7 nM | concentration at 2 h [5]: 13.4 nM | concentration at 3 h [1]: 17.1 nM | concentration at 3 h [2]: 18.7 nM | concentration at 3 h [3]: 17.1 nM | concentration at 3 h [4]: 16.1 nM | concentration at 3 h [5]: 16.1 nM | concentration at 4 h [1]: 20.1 nM | concentration at 4 h [2]: 26.8 nM | concentration at 4 h [3]: 20.3 nM | concentration at 4 h [4]: 18.7 nM | concentration at 4 h [5]: 18.7 nM | concentration at 5 h [1]: 23.2 nM | concentration at 5 h [2]: 26.8 nM | concentration at 5 h [3]: 23.6 nM | concentration at 5 h [4]: 24.1 nM | concentration at 5 h [5]: 16.1 nM | concentration at 8 h [1]: 21.1 nM | concentration at 8 h [2]: 32.1 nM | concentration at 8 h [3]: 22 nM | concentration at 8 h [4]: 21.4 nM | concentration at 8 h [5]: 13.4 nM | concentration at 10 h [1]: 21.6 nM | concentration at 10 h [2]: 32.1 nM | concentration at 10 h [3]: 22.5 nM | concentration at 10 h [4]: 21.4 nM | concentration at 10 h [5]: 13.4 nM | concentration at 12 h [1]: 17.1 nM | concentration at 12 h [2]: 21.4 nM | concentration at 12 h [3]: 18.2 nM | concentration at 12 h [4]: 21.4 nM | concentration at 12 h [5]: 8.03 nM | concentration at 24 h [1]: 14.7 nM | concentration at 24 h [2]: 18.7 nM | concentration at 24 h [3]: 15 nM | concentration at 24 h [4]: 16.1 nM | concentration at 24 h [5]: 10.7 nM | AUC(0-inf) (2 mg, Day 1, 2 mg, N 6, read-out: AUC0-inf, GeoMean): 1080 ng·h/mL
